Assay results taken from patent US6492416B1, “4,5-diaryl-3(2H)-furanone derivatives as cyclooxygenase-2 inhibitors” (Pacific Corporation, priority 1999, dated 2002).
Values after ≈ are worked out from the molar mass of the structure shown.

How the values were obtained:
[1] = target: T1, COX-2 (Mus musculus, UniProt Q05769); experiment: Evaluation of COX-2 activity: PGE2 formation in aspirin-treated, LPS-stimulated mouse peritoneal macrophages; format: cell-based
T1 sequence (Q05769 18-604): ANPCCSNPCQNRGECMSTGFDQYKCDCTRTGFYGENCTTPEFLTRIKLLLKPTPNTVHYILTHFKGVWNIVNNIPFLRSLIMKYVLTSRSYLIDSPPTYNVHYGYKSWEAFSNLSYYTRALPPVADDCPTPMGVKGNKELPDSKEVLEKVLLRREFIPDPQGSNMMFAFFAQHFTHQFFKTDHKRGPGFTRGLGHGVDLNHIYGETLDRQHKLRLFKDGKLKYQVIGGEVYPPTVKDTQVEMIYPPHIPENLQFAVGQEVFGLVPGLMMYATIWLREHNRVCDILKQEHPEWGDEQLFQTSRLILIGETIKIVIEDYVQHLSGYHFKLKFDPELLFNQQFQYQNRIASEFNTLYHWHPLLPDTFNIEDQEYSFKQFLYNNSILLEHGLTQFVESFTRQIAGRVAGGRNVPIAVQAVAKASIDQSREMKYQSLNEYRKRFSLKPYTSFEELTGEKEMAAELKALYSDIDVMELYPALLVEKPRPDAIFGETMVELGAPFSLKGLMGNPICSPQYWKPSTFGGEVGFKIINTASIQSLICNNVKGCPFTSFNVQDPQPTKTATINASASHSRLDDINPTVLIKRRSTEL
Summary of the method: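 PGE2 output, quantified by radio- or enzyme-immunoassay, was read after 10 min exposure of cells to compound with 10 μM arachidonic acid. Cells were mouse peritoneal macrophages, COX-1 knocked out with 500 μM aspirin and COX-2 induced by 10 μg/ml LPS over 16 h. IC50 derived from 4–5 concentrations.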

[2] = target: T2, COX-1 (Mus musculus, UniProt P22437); experiment: Evaluation of COX-1 activity: PGE2 formation in mouse peritoneal macrophages without aspirin and LPS treatment; format: cell-based
T2 sequence (P22437 27-602): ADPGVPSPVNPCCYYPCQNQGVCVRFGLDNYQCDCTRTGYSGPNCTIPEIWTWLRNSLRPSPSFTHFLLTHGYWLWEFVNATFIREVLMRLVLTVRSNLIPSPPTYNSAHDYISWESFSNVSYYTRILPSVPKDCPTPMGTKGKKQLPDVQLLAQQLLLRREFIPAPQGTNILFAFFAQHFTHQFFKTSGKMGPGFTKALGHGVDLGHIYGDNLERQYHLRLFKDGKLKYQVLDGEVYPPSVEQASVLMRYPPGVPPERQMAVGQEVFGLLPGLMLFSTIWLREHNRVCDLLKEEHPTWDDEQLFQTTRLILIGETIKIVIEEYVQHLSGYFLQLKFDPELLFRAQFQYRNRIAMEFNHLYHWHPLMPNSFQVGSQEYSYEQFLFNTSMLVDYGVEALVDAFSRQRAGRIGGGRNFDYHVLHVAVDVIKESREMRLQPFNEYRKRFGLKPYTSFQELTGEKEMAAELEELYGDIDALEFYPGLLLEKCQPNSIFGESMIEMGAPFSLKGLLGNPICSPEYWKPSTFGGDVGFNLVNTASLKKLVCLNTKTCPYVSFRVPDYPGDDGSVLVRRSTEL
Summary of the method: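 Peritoneal macrophages from C57BL/6 mice, without aspirin or LPS treatment, were plated at 1×10^6 cells/ml and fixed 2 h at 37 °C. Cells were preincubated 10 min, then given 10 μM arachidonic acid plus compound for 10 min; PGE2 was measured by RIA or EIA. IC50 came from 4–5 concentrations.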

melting point [°C]	IC50, μg/ml COX-2 [1] [µg/mL]	IC50, μg/ml COX-1 [2] [µg/mL]	SMILES
154 to 155	0.3 (≈ 0.712 µM)	90 (≈ 214 µM)	CC1(C)OC(c2ccc(S(C)(=O)=O)c(Br)c2)=C(c2ccccc2)C1=O [Example 341, 5-{3-Bromo-4-(methylsulfonyl)phenyl}-2,2-dimethyl-4-phenyl-3(2H)-furanone]
194 to 195	0.03 (≈ 0.0656 µM)	50 (≈ 109 µM)	CC1(C)OC(c2ccc(S(C)(=O)=O)c(Br)c2)=C(c2cc(F)cc(F)c2)C1=O [Example 345]
128 to 132	0.9 (≈ 2.13 µM)	300 (≈ 710 µM)	CC1(C)OC(c2ccc(S(N)(=O)=O)c(Br)c2)=C(c2ccccc2)C1=O [Example 351, 5-{4-(Aminosulfonyl)-3-bromophenyl}-2,2-dimethyl-4-phenyl-3(2H)-furanone]
188 to 189	0.02 (≈ 0.0486 µM)	8 (≈ 19.5 µM)	CC1(C)OC(c2ccc(S(C)(=O)=O)c(Cl)c2)=C(c2cccc(Cl)c2)C1=O [Example 358]
173 to 174	0.009 (≈ 0.0228 µM)	3 (≈ 7.6 µM)	CC1(C)OC(c2ccc(S(C)(=O)=O)c(Cl)c2)=C(c2ccc(F)cc2)C1=O [Example 360]
200 to 201	0.05 (≈ 0.121 µM)	300 (≈ 727 µM)	CC1(C)OC(c2ccc(S(C)(=O)=O)c(Cl)c2)=C(c2cc(F)cc(F)c2)C1=O [Example 362]
193 to 194	0.06 (≈ 0.159 µM)	8 (≈ 21.2 µM)	CC1(C)OC(c2ccc(S(N)(=O)=O)c(Cl)c2)=C(c2ccccc2)C1=O [Example 367, 5-{4-(Aminosulfonyl)-3-chlorophenyl}-2,2-dimethyl-4-phenyl-3(2H)-furanone]
162 to 163	0.02 (≈ 0.0485 µM)	7 (≈ 17 µM)	CC1(C)OC(c2ccc(S(N)(=O)=O)c(Cl)c2)=C(c2cccc(Cl)c2)C1=O [Example 368]
173 to 174	0.02 (≈ 0.0483 µM)	200 (≈ 483 µM)	CC1(C)OC(c2ccc(S(N)(=O)=O)c(Cl)c2)=C(c2cc(F)cc(F)c2)C1=O [Example 371]
136 to 137	0.09 (≈ 0.23 µM)	200 (≈ 510 µM)	CNS(=O)(=O)c1ccc(C2=C(c3ccccc3)C(=O)C(C)(C)O2)cc1Cl [Example 372, 5-{3-Chloro-4-(N-methylaminosulfonyl)phenyl}-2,2-dimethyl-4-phenyl-3(2H)-furanone]
138 to 139	0.03 (≈ 0.0801 µM)	3 (≈ 8.01 µM)	Cc1cc(C2=C(c3cccc(F)c3)C(=O)C(C)(C)O2)ccc1S(C)(=O)=O [Example 378, 2,2-Dimethyl-4-(3-fluorophenyl)-5-{3-methyl-4-(methylsulfonyl)phenyl}-3(2H)-furanone]
105 to 106	0.03 (≈ 0.073 µM)	0.05 (≈ 0.122 µM)	CC1(C)OC(c2ccc(S(C)(=O)=O)c(F)c2)=C(c2cccc(Cl)c2)C1=S [Example 385, 4-(3-Chlorophenyl)-2,2-dimethyl-5-{3-fluoro-4-(methylsulfonyl)phenyl}-(2H)-furan-3-thione]
